The text below walks through data of ChEMBL document CHEMBL4715770, “Inhibition of Low Molecular Weight Protein Tyrosine Phosphatase by an Induced-Fit Mechanism” (J Med Chem, 2016).

Molecules are shown by their SMILES.

Assay [1] deals with T1, Dual specificity protein phosphatase CDC14A (Homo sapiens, UniProt Q9UNH5).
T1 sequence (Q9UNH5 whole entry): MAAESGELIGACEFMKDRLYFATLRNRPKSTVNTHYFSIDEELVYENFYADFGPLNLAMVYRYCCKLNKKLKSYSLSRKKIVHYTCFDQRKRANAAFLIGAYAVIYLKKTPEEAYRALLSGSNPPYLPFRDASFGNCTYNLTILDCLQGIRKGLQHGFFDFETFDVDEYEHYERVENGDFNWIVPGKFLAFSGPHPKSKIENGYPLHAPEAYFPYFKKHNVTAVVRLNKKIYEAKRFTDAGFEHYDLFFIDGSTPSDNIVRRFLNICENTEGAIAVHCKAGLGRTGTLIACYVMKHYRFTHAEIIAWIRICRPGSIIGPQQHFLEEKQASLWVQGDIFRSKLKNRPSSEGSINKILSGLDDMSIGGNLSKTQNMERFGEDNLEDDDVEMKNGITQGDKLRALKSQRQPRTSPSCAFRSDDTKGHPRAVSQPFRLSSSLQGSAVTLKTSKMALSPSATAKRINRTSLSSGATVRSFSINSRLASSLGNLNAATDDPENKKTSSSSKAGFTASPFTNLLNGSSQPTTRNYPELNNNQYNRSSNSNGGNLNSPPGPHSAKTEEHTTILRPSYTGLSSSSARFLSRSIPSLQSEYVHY
The experiment in a line: Inhibition of His-tagged CDC14A (unknown origin) expressed in Escherichia coli BL21 cells using para-nitrophenyl phosphate as substrate incubated for 5 to 10 mins by microplate reader based spectrophotometric analysis.

Assay [2] has as its target T2, Serine/threonine-protein phosphatase 5 (Homo sapiens, UniProt P53041).
T2 sequence (P53041 whole entry): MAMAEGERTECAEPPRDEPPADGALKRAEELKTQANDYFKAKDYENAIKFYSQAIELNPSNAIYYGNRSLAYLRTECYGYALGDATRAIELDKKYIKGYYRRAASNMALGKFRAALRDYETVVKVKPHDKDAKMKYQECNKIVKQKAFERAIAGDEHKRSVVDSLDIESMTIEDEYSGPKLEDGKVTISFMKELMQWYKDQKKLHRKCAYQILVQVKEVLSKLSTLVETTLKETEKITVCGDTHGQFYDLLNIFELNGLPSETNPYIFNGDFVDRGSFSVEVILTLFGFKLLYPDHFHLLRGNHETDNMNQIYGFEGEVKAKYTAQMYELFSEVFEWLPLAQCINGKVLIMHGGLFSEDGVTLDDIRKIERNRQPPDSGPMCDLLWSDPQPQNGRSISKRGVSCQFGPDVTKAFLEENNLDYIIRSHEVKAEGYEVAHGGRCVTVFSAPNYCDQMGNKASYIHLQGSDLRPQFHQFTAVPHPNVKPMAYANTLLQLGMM
The experiment in a line: Inhibition of His-tagged PP5 (unknown origin) expressed in Escherichia coli BL21 cells using para-nitrophenyl phosphate as substrate incubated for 5 to 10 mins by microplate reader based spectrophotometric analysis.

For assay [3], the target named is T3, Dual specificity protein phosphatase 23 (Homo sapiens, UniProt Q9BVJ7).
T3 sequence (Q9BVJ7 whole entry): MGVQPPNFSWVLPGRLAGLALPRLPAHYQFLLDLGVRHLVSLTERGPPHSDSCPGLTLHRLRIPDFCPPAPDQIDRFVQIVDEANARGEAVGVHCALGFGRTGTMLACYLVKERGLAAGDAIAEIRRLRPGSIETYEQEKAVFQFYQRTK
The experiment in a line: Inhibition of His-tagged VHZ (unknown origin) expressed in Escherichia coli BL21 cells using para-nitrophenyl phosphate as substrate incubated for 5 to 10 mins by microplate reader based spectrophotometric analysis.

Assay [4] deals with Receptor-type tyrosine-protein phosphatase alpha (Homo sapiens, UniProt P18433). Nature of the assay: Inhibition of His-tagged PTPalpha (unknown origin) expressed in Escherichia coli BL21 cells using para-nitrophenyl phosphate as substrate incubated for 5 to 10 mins by microplate reader based spectrophotometric analysis.
Chain of Receptor-type tyrosine-protein phosphatase alpha (P18433 whole entry): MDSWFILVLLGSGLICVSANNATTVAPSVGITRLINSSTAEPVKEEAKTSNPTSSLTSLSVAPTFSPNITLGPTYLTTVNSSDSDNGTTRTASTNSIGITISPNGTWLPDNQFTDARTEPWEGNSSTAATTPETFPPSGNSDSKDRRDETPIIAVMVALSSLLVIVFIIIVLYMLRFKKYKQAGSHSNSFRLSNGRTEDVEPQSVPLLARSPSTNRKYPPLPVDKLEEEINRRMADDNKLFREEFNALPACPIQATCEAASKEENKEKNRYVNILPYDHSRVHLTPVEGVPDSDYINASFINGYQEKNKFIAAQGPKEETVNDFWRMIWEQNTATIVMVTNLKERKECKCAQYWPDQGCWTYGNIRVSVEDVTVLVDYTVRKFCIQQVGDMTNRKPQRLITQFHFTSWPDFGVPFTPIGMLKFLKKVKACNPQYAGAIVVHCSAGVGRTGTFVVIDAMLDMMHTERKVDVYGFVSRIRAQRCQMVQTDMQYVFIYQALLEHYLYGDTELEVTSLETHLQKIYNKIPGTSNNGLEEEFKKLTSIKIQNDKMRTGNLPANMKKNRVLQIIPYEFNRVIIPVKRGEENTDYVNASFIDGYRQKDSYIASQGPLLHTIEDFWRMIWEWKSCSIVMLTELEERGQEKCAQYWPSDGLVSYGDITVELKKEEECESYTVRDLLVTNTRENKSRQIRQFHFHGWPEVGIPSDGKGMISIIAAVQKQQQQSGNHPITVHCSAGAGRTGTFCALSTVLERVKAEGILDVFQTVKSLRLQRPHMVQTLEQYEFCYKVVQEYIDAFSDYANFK
The target of assay [5] is T4, Tyrosine-protein phosphatase non-receptor type 7 (Homo sapiens, UniProt P35236).
T4 sequence (P35236 whole entry): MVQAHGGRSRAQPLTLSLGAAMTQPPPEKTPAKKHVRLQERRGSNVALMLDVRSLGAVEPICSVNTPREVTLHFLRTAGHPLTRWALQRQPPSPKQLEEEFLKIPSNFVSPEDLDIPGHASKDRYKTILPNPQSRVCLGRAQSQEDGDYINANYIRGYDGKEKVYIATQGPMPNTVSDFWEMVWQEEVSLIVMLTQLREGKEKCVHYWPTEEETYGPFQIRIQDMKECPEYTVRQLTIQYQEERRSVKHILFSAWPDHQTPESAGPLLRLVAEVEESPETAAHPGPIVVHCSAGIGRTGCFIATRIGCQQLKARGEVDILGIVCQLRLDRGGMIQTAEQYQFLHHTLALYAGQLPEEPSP
Nature of the assay: Inhibition of His-tagged HePTP (unknown origin) expressed in Escherichia coli BL21 cells using para-nitrophenyl phosphate as substrate incubated for 5 to 10 mins by microplate reader based spectrophotometric analysis.

In assay [6] the target is Receptor-type tyrosine-protein phosphatase gamma (Homo sapiens, UniProt P23470). Nature of the assay: Inhibition of His-tagged PTPgamma (unknown origin) expressed in Escherichia coli BL21 cells using para-nitrophenyl phosphate as substrate incubated for 5 to 10 mins by microplate reader based spectrophotometric analysis.
Chain of Receptor-type tyrosine-protein phosphatase gamma (P23470 whole entry, the tested form may be a part): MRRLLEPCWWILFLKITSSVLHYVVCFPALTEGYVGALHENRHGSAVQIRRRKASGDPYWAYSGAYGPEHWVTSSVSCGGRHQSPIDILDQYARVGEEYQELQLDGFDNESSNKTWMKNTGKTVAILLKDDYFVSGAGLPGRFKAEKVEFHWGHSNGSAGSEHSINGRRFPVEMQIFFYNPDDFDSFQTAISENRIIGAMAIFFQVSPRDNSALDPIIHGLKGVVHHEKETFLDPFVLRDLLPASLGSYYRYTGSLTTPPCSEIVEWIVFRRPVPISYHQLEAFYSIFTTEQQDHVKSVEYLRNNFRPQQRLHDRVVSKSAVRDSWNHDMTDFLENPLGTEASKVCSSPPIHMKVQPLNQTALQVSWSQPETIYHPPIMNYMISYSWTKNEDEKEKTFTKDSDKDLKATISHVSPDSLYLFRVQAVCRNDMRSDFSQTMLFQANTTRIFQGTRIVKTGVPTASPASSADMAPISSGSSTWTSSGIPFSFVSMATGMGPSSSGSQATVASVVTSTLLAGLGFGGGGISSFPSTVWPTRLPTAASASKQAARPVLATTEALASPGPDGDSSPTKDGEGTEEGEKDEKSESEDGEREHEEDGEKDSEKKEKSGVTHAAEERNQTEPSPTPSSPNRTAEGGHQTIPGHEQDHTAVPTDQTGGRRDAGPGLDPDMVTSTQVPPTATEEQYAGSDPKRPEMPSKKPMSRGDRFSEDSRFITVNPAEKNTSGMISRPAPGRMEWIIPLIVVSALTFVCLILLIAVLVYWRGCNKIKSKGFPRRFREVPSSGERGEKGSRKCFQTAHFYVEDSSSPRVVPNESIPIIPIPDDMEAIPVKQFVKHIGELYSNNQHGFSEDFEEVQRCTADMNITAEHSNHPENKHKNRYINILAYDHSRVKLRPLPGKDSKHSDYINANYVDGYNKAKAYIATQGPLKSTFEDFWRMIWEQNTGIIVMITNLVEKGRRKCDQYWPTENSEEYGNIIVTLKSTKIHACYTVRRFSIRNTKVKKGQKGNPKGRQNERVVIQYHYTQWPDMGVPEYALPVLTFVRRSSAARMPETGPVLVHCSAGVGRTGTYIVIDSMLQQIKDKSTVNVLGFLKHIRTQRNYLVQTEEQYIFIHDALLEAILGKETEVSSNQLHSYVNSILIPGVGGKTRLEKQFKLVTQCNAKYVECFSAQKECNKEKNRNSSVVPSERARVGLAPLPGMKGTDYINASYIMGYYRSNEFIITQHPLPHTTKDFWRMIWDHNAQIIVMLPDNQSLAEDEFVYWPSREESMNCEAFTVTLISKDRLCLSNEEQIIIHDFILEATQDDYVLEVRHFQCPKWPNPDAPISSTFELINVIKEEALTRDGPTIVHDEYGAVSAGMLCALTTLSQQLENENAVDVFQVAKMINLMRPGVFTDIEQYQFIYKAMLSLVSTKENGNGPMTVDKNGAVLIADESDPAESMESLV
In assay [7] the target is T5, RNA polymerase II subunit A C-terminal domain phosphatase SSU72 (Homo sapiens, UniProt Q9NP77).
T5 sequence (Q9NP77 whole entry): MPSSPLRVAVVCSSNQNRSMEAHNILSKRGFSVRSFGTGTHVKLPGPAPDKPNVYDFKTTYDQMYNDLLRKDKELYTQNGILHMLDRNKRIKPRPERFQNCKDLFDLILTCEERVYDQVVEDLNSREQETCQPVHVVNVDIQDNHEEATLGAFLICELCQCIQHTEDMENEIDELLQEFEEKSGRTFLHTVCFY
Nature of the assay: Inhibition of His-tagged SSu72 (unknown origin) expressed in Escherichia coli BL21 cells using para-nitrophenyl phosphate as substrate incubated for 5 to 10 mins by microplate reader based spectrophotometric analysis.

Assay [8] deals with T6, Tyrosine-protein phosphatase non-receptor type 2 (Homo sapiens, UniProt P17706).
T6 sequence (P17706 whole entry): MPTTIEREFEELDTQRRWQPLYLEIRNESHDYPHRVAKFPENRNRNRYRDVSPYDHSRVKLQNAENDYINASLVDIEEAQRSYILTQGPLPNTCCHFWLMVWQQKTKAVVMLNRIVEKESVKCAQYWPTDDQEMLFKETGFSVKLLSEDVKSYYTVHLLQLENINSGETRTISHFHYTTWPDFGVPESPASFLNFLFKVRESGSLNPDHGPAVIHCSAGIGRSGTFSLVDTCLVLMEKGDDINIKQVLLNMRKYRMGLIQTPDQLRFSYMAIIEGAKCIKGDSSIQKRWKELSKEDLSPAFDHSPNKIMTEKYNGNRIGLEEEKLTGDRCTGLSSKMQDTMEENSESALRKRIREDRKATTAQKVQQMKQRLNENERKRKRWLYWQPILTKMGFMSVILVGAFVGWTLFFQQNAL
Nature of the assay: Inhibition of His-tagged TC-PTP (unknown origin) expressed in Escherichia coli BL21 cells using para-nitrophenyl phosphate as substrate incubated for 5 to 10 mins by microplate reader based spectrophotometric analysis.

As a reminder, the IC50 is the midpoint of a concentration-inhibition curve. Lower therefore signals greater potency.

With `Cc1c(Br)cc(NC(=O)C(c2ccccc2)S(=O)(=O)O)cc1Br` (centres undefined), the IC50 in assay [1], in assay [2], in assay [3], in assay [4], in assay [5] and in assay [6] was greater than 200 µM in each case. Besides, the IC50 in assay [7] and in assay [8] was greater than 200 µM each time.

As to `O=C(Nc1cc(C(F)(F)F)cc(C(F)(F)F)c1)C(c1ccccc1)S(=O)(=O)O` (centres undefined), the IC50 in assay [1] is greater than 200 µM; in assay [2] it was greater than 200 µM; in assay [3] it was greater than 200 µM; in assay [4] it was greater than 200 µM; in assay [5], 94 µM; in assay [6], greater than 200 µM. The IC50 in assay [7] is 83 µM; in assay [8] it was greater than 200 µM.

For the molecule `O=C(Nc1nc2ccc([N+](=O)[O-])cc2s1)C(c1ccccc1)S(=O)(=O)O` (centres undefined), the IC50 in assay [1], in assay [2], in assay [3], in assay [4], in assay [5] and in assay [6] was greater than 100 µM each time. The IC50 in assay [7] and in assay [8] was greater than 100 µM throughout.

For the molecule `O=C(Nc1ccc(-n2ccnc2)cc1)C(c1ccccc1)S(=O)(=O)O` (centres undefined), the IC50 in assay [1], in assay [2], in assay [3], in assay [4], in assay [5] and in assay [6] was greater than 100 µM throughout. Moreover, the IC50 in assay [7] and in assay [8] was greater than 100 µM throughout.

For the molecule `O=C(Nc1ccc(OCc2ccccc2)c(Cl)c1)C(c1ccccc1)S(=O)(=O)O` (centres undefined), the concentration for half-maximal inhibition (IC50) in assay [1], in assay [2], in assay [3], in assay [4], in assay [5] and in assay [6] was greater than 200 µM each time. The same molecule showed an IC50 in assay [8] greater than 200 µM.
